From PMC3136501 (PLoS ONE, 2011)

Experiments:
human OCT2 = biological target: T1, human OCT2 (Homo sapiens, UniProt O15244); experiment: Inhibition of OCT2-mediated metformin uptake in stably transfected HEK cells; assay type: cell-based; conditions: for IC50: 5 µM [14C]metformin uptake, 5 sec, HEK-OCT2, means ± SE of 3 experiments
T1 construct: OCT2: NP_003049.2; expressed in transfected cells; host or cells: HEK293 (ATCC), stably transfected with pcDNA3.1(+)-SLC22A2
T1 sequence (O15244 1-555): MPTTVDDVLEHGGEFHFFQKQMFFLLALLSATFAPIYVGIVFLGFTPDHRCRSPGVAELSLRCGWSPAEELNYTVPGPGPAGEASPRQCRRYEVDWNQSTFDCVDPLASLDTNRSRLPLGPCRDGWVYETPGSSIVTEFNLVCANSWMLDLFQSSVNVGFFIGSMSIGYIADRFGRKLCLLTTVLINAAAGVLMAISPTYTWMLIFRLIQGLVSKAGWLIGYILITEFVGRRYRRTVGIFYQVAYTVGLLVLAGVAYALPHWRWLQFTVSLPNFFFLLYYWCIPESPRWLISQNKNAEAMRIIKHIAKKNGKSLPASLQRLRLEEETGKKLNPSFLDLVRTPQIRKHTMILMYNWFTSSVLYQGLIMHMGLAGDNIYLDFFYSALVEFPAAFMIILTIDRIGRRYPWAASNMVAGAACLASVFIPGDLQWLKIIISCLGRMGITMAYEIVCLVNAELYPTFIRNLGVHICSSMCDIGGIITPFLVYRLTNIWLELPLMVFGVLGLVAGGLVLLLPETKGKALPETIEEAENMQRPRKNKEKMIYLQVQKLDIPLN
Experimental: (§1) SLC22A1 cDNA and SLC22A2 cDNA had been PCR-amplified from human liver and kidney, respectively, as reported elsewhere and cDNAs were provided by the German Cancer Research Center; the study and the use of the tissue were approved by the institutional review board of the German Cancer Center, Heidelberg, Germany. Since the data were analyzed anonymously, and tissues were left-over samples from diagnostic procedures, written informed consent had not been required and obtained. IRB specifically waived the need for consent due to the fact the human tissue material used was fully anonymized. SLC22A3 cDNA was amplified using SLC22A3-TrueClone (Origene, Rockville, MD, USA) as the template. SLC22A1 cDNA was cloned into the expression vector pcDNA3.1/Hygro(-) (Invitrogen, Darmstadt, Germany), SLC22A2 and SLC22A3 cDNA into pcDNA3.1(+) (Invitrogen). […] HEK cells were grown in DMEM (Sigma) supplemented with 10% fetal bovine serum (Sigma), 100 U⋅ml^−1 penicillin, and 100 µg⋅ml^−1 streptomycin (Lonza, Basel, Switzerland) at 37°C and 5% CO2. HEK cells were transfected with Metafectene Pro (Biontex, München, Germany). Selection of clones stably expressing OCT1 was carried out with 0.5 mg⋅ml^−1 hygromycin as described. Similarly, clones stably expressing OCT2 or OCT3 were selected with 800 µg⋅ml^−1 G418. HEK cells stably transfected with the empty pcDNA3.1(+) vector served as controls (HEK-Co). Cells were incubated with 5 mM butyrate 24 h before use to increase protein levels of recombinant transporters.
(§2) HEK cells (400000 cells/well) were seeded into 24-well cell culture plates (Greiner Bio-One, Frickenhausen, Germany) and grown for 48 h. Cell adherence was improved by coating plates with poly-L-lysine (Biochrom AG, Berlin, Germany) prior to cell plating. All uptake studies were carried out at 37°C as described. […] Uptake was stopped at indicated time points by removing the uptake buffer and immediately washing the cells 3 times with ice-cold uptake buffer. Cells were lysed with 0.2% SDS and intracellular radioactivity was determined by liquid scintillation counting (Hidex 300SL TDCR liquid scintillation counter, Turku, Finland).
(§3) OCT-specific metformin uptake was obtained by subtracting metformin uptake in the presence of 2 mM unlabeled 1-methyl-4-phenylpyridinium (MPP) from that in its absence. […] OCT-specific metformin uptake in the presence of a PPI was then calculated as percentage of that in the absence of the respective PPI (100% uninhibited). For each PPI concentration, 3 individual experiments each with 3 parallel measurements were performed. Apparent IC50 values for inhibition of metformin uptake by PPIs were calculated for each individual experiment by fitting the values to the Hill equation using GraphPad Prism 4 (GraphPad Software Inc., La Jolla, CA, USA). Values in Table 1 are given as the means ± SE of the 3 individual experiments.

human OCT1 = biological target: T2, human OCT1 (Homo sapiens, UniProt O15245); experiment: Inhibition of OCT1-mediated metformin uptake in stably transfected HEK cells; assay type: cell-based; conditions: for IC50: 5 µM [14C]metformin uptake, 5 min, HEK-OCT1, means ± SE of 3 experiments
T2 sequence (O15245 1-554): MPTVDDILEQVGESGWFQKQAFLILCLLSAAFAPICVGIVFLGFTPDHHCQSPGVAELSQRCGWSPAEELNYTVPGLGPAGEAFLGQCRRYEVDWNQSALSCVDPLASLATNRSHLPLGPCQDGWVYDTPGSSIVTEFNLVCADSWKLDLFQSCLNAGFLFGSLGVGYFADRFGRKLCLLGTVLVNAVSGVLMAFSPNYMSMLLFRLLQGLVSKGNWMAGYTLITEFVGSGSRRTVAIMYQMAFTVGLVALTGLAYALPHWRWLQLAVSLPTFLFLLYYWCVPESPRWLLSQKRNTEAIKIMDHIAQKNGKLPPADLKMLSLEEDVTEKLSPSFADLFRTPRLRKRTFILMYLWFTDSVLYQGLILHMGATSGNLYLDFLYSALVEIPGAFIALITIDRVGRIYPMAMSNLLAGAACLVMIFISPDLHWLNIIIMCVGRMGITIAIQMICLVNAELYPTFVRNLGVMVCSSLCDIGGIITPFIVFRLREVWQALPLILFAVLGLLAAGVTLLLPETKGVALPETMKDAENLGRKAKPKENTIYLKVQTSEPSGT
Experimental: as §1, §2, §3

[1] = 5 µM metformin, 2 mM unlabeled MPP

SMILES	IC50 (human OCT2) [µM]	IC50 (human OCT1) [µM]	Metformin uptake by HEK-OCT2 in the presence of MPP (human OCT2; [1])	Metformin uptake by HEK-OCT1 in the presence of MPP (human OCT1; [1])	OCT1-mediated metformin uptake at low PPI concentrations (human OCT1; low concentrations of PPI, Figure 3)
Cc1c(OCC(F)(F)F)ccnc1C[S+]([O-])c1nc2ccccc2[nH]1 (stereo not shown) [Lansoprazole]	9.5 ± 3.8	35.8 ± 5.8			
C[n+]1ccc(-c2ccccc2)cc1 [MPP, 1-methyl-4-phenylpyridinium]			almost completely absent	almost completely absent	
COc1ccc2[nH]c([S+]([O-])Cc3ncc(C)c(OC)c3C)nc2c1 (stereo not shown) [Omeprazole]	6.7 ± 2.1	15.7 ± 3.8			
COc1ccnc(C[S+]([O-])c2nc3ccc(OC(F)F)cc3[nH]2)c1OC (stereo not shown) [Pantoprazole]	2.8 ± 0.9	30.8 ± 8.8			
COCCCOc1ccnc(C[S+]([O-])c2nc3ccccc3[nH]2)c1C (stereo not shown) [Rabeprazole]	5.7 ± 0.5	3 ± 1.7			activated
COc1ccc2[nH]c([S+]([O-])Cc3ncc(C)c(OC)c3C)nc2n1 (stereo not shown) [Tenatoprazole]	20.3 ± 7.2	23.3 ± 7.1			
